Measured values from patent US8389563B2, “C-substituted diindolylmethane compositions and methods for the treatment of multiple cancers” (The Texas A&M University System, priority 2000, dated 2013).
Each block holds one molecule with its values, some of them ahead of it.

Columns and labels:
PPARγ = molecular target: T1, PPARγ (Homo sapiens, UniProt P37231); assay: pGAL4-PPARγ / pGAL45 luciferase reporter assay in MCF-7 breast cancer cells; format: cell-based; settings: 5 μM
T1 construct: expressed in transfected cells; host or cells: MCF-7 breast cancer cells
T1 sequence (P37231 238-503 limits assumed): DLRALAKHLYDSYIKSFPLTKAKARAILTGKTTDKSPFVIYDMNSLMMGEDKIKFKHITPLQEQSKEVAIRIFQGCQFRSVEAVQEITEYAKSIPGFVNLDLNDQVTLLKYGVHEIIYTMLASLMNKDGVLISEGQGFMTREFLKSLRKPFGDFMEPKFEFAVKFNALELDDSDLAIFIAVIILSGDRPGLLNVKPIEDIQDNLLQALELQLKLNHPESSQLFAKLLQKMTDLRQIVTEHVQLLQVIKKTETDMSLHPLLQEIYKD
Description: Peroxisome proliferator-activated receptor (PPAR) is a nuclear receptor that induces differentiation in multiple tissues and cell lines. Synthetic compounds that bind PPAR (inhibit growth, induce differentiation in multiple tumor cell lines, and inhibit mammary carcinogenesis in rodent models (Mueller et al., “Terminal differentiation of human breast cancer through PPAR” Mol. Cell. 1:465 470, 1998; Elstner et al., “Ligands for peroxisome proliferator-activated receptor gamma and retinoic acid receptor inhibit growth and induce apoptosis of human breast cancer cells in vitro and in BNX mice” Proc. Natl. Acad. Sci. USA 95:8806 8811, 1998; Brockman et al., “Activation of PPARγ leads to inhibition of anchorage independent growth of human colorectal cancer cells” Gastroenterology 115:2049 1055, 1998; Tontonoz et al., “Terminal differentiation of human lipsarcoma cells induced by ligands for peroxisome proliferator-activated receptor and the retinoid X receptor” Proc. Natl. Acad. Sci. USA 94:237 241, 1997; Suh et al., “A new ligand for the peroxisome proliferator-activated receptor-PPAR, GW7845, inhibits rat mammary carcinogenesis” Cancer Res. 59:56715673, 1999). […] Ligand activation of pGAL4-PPARγ is detected using a construct containing five tandem GAL4 response elements (pGAL45) linked to a luciferase reporter gene.

[1] = tested on: 22Rv1 human prostate cancer cells; assay: Proliferation of 22Rv1 prostate cancer cells; format: cell-based; settings: 1 nM TCDD
[2] = tested on: CYP1A1-dependent ethoxyresorufin O-deethylase (EROD) activity; assay: Induction of EROD activity in 22Rv1 prostate cancer cells; settings: treatment for 24 hrs; TCDD 0.1 to 10 nM
Description: (§1) Results illustrated below summarize the concentration-dependent induction of CYP1A1-dependent ethoxyresorufin O-deethylase (EROD) activity by DIM and TCDD in androgen-nonresponsive PC3 human prostate cancer cells (FIG. 12). […] We also investigated the induction of EROD activity in two additional androgen-responsive prostate cancer cell lines.

[3] = tested on: CYP1A1-dependent ethoxyresorufin O-deethylase (EROD) activity; assay: Induction of EROD activity in LnCAP prostate cancer cells; format: cell-based, human
Description: as §1

[4] = tested on: CYP1A1-dependent ethoxyresorufin O-deethylase (EROD) activity; assay: Induction of EROD activity in PC3 prostate cancer cells
Description: as §1

Increase in reporter gene (luciferase) activity, pGAL4-PPARγ (PPARγ): 2 fold
SMILES: CCCCC/C=C/C=C1/C(=O)C=C[C@@H]1C/C=C\CCCC(=O)O [PGJ, 15-deoxy-γ^12,14-prostaglandin J2]

SMILES: Clc1cc2c(cc1Cl)Oc1cc(Cl)c(Cl)cc1O2 [TCDD, 2,3,7,8-tetrachlorodibenzo-p-dioxin]
Proliferation of 22Rv1 human prostate cancer cells [1]: inhibited proliferation
Induction of EROD activity in 22Rv1 cells [2]: induced EROD activity
Induction of EROD activity in LnCAP cells [3]: significant induction of EROD activity
Treatment time of maximal EROD induction in PC3 cells ([4]; 10 nM TCDD): 96 h
Induction of EROD activity in PC3 cells ([4]; 10 μM DIM, 10 nM TCDD): induced EROD activity
Induction of EROD activity in PC3 cells after 24 hours ([4]; 24 hours): minimal (but significant) induction
